Four compounds from patent US20050059744A1, “Methods and compositions for the treatment of pain and other alpha 2 adrenergic-mediated conditions” (Allergan, Inc., priority 2003, published 2005) can be followed below.

Read-outs that look alike come from different tables or passages of the source.

Data set [1] relates to intraocular pressure of rabbit eyes. Description: Normotensive intraocular pressure in rabbit eyes after topical instillation (pneumatonometer). It counts as in vivo, New Zealand rabbits. As to the method: Male New Zealand rabbits are used to evaluate drug effects on normotensive IOP measurements. The rabbits are carefully handled so as to minimize excitement. They should be picked up by the nape of the neck, with their hindlegs supported by the other hand. After removing the rabbit from its cage, approximately 25 ul of dilute Ophthetic® (0.05%) topical anesthesia is administered to each eye. An initial IOP determination is made in both eyes. Rabbits with 3 mmHg or greater difference in IOP between right and left eyes are replaced at this time.
Immediately following the time zero (T=0) reading in both eyes, one eye of each experimental rabbit is instilled with an ophthalmic formulation of 0.1% (w/w) brimonidine tartrate onto the cornea of the randomly selected test eye. […] The other eye is given the vehicle containing no drug. The ophthalmic formulations comprise 50 ppm Purite® (stabilized chlorine dioxide), 0.5% carboxymethylcellulose, 0.6% (w/w) borate buffer (pH 7.7) and small amounts of salts (NaCl, KCl, CaCl2, MgCl2). Intraocular pressure of both treated (ipsalateral)and untreated (contralateral) eyes is measured at the indicated time intervals for seven hours. Pressure readings utilize a Model 30 Classic™ Pneumatonometer as the measuring and recording instrument. It measures intraocular pressure (IOP) non-invasively through applanation tonometry.

In data set [2] the test system is sulprostone-induced allodynia in mice. As to the kind of experiment: Sulprostone-induced allodynia mouse model, paint brush pain score. In kind it is in vivo. On the procedure: Alternatively, allodynia can be induced in mice through intrathecal treatment of the animals with 200 ng sulprostone (prostaglandin E2 receptor agonist) in 50% DMSO and in a volume of 5 μl. In this model, the pain response to stroking the flank with a paint brush is scored 8 times over a 35 minute period starting 15 minutes following spinal administration of sulprostone. Minami et al., 57 Pain 217-223 (1994).
The compounds are formulated in approximately 0.01-5% DMSO and given in a volume of 1 ml/kg body weight for systemic dosing or 5 μl in saline for intrathecal dosing. Clonidine is tested at intrathecal doses ranging between 0.01 and 10.0 μg.
Amitriptylene is dissolved in 50% DMSO at the indicated doses and injected in a volume of 5 ul intrathecally into each mouse, in conjunction with either a 30 ug/kg IP injection of 5-methylurapadil or with a similar injection of saline.
Experimental procedure is the same as in Example 1, except both clonidine (various doses) and 5-methylurapidil (1 microgram intrathecal) are coadministered by intrathecal injection in a 50% DMSO vehicle and in a total volume of 5 microliters.

In another data set the test system is sedation. Description: Clonidine sedative activity dose response with or without 5-methylurapadil (FIG. 2). To be noted: co-administration of 5-methyl urapidil 30 μg/kg intraperitoneal vs clonidine alone. On the procedure:
(§1) To test sedation, six male Sprague-Dawley rats are given various doses of a clonidine intrathecal injection. Sedation is graded 30 minutes following administration of the drug by monitoring locomotor skills as follows. Rats are placed in a dark covered chamber and a digicom analyzer (Omnitech Electronic) quantitates their exploratory behavior for a five-minute period. The machine records each time the rat interrupts an array of 32 photoelectric beams in the X and Y orientation, and quantifies the difference in behavior as compared to control animals given saline instead of clonidine.

Data set [3] concerns Chung model of allodynic rats. The source says: A model for chronic pain (in particular peripheral neuropathy) involves the surgical ligation of the L5 (and optionally the L6) spinal nerves on one side in experimental animals. Rats recovering from the surgery gain weight and display a level of general activity similar to that of normal rats. However, these rats develop abnormalities of the foot, wherein the hindpaw is moderately everted and the toes are held together. More importantly, the hindpaw on the side affected by the surgery appears to become sensitive to pain from low-threshold mechanical stimuli, such as that producing a faint sensation of touch in a human, within about 1 week following surgery. This sensitivity to normally non-painful touch is called “tactile allodynia” and lasts for at least two months. The response includes lifting the affected hindpaw to escape from the stimulus, licking the paw and holding it in the air for many seconds. None of these responses is normally seen in the control group.
Rats are anesthetized before surgery. The surgical site is shaved and prepared either with betadine or novacaine. Incision is made from the thoracic vertebra X111 down toward the sacrum. Muscle tissue is separated from the spinal vertebra (left side) at the L4-S2 levels. The L6 vertebra is located and the transverse process is carefully removed with a small rongeur to expose the L4-L6 spinal nerves. The L5 and L6 spinal nerves are isolated and tightly ligated with 6-0 silk thread. The same procedure is done on the right side as a control, except no ligation of the spinal nerves is performed.
A complete hemostasis is confirmed, then the wounds are sutured. A small amount of antibiotic ointment is applied to the incised area, and the rat is transferred to the recovery plastic cage under a regulated heat-temperature lamp. […]
In the Chung rat model, tactile allodynia is measured prior to and 30 minutes after drug administration using von Frey hairs that are a series of fine hairs with incremental differences in stiffness. […]

In a further data set the test system is male Sprague-Dawley rats. The conditions noted are these: graded 30 minutes after administration. On the procedure:
as §1

[4] abbreviates: 35 microliters 0.003% prazosin instilled, FIG. 4A.
Setting [5] is: 0.1% brimonidine and 0.003% prazosin, FIG. 4D.

`COc1cc2nc(N3CCN(C(=O)c4ccco4)CC3)nc(N)c2cc1OC` [prazosin]: in data set [1] (setting [4]), the “intraocular pressure compared to the untreated eye” value is on record as “small initial drop” and the “return to baseline pressure” value amounted to 2 h.

For the compound `Clc1cccc(Cl)c1N=C1NCCN1` [clonidine], the “shift of the effective analgesic dose lower vs clonidine alone” value in data set [2] (5-methyl urapidil 30 μg/kg intraperitoneal 5 minutes before clonidine) was found to be 10 fold. In addition, the analgesia result in data set [2] (clonidine 0.1 microgram intrathecal in the absence of prazosin) is reported as “not analgesic”; in data set [2] (mice, dose-dependence statement) it was “analgesic”; in data set [3] (intrathecal dose of 0.1 μg, allodynic rats), “no analgesia”; in data set [3] (intrathecal dose of 1.0 μg, allodynic rats) it was “maximal analgesia”; in data set [3] (rats, dose-dependence statement), “analgesic”. Also, the “analgesic results compared with intraperitoneal injection of the alpha 1 antagonist” value in data set [2] (clonidine (various doses) and 5-methylurapidil 1 microgram coadministered intrathecally) is given as “substantially similar”. Further, the “decrease in the EC50 for clonidine vs i.t. clonidine alone” value in data set [2] (coadministration of prazosin 100 ng/kg intraperitoneal) was “four”. In the data set with sedation, the sedating dose entry is recorded as “unchanged”. The sedation result in the data set with male Sprague-Dawley rats (intrathecal dose of 3.0 μg) is listed as “mildly sedating”; in the data set on male Sprague-Dawley rats (intrathecal dose of 10 μg) it was “maximal sedation”.

Regarding `Brc1c(NC2=NCCN2)ccc2nccnc12` [brimonidine], the “lowering of intraocular pressure” value in data set [1] (0.1% brimonidine alone, after the first 30 minutes, FIG. 4B) is given as ~30%. Besides, the “initial change in intraocular pressure” value in data set [1] (0.1% brimonidine alone, within the first 30 minutes, FIG. 4B) is listed as “pronounced increase”; in data set [1] (setting [5]), “only a very small increase”. The “peak IOP lowering” value in data set [1] (setting [5]) is recorded as “approximately 40%”. The “difference in intraocular pressure response vs brimonidine alone” value in data set [1] (co-installation of 0.1% brimonidine and 0.001% prazosin, FIG. 4C) is given as “Little difference”.

For `CN(C)CCC=C1c2ccccc2CCc2ccccc21` [Amitriptylene, amitriptylene], the “reduction in the dosage necessary to achieve maximal analgesia” value in data set [2] (amitriptylene intrathecal with 30 ug/kg IP 5-methylurapadil vs with saline) is listed as “approximately three”.
